Experimental data published in PubChem BioAssay AID2060600 (Molecular Pharmacology Branch, DTP, NCI, 2025).
Several values for one entry are separate records, joined by “and”; a condition that tells them apart may be missing. Equal entries are not always repeated.

Test system: 996289-038-R-J1-PDC complex spheroid viability
Test: Anticancer human tumor 996289-038-R-J1-PDC patient-derived colon adenocarcinoma cell line growth inhibition [CLK]
Conditions: for viability, T/C: stronger effect = lower value
Excerpt: A high-throughput screen of multi-cell type tumor spheroids was designed to identify active combinations of […] and targeted small molecules. Complex spheroids include a stromal component modeled by human endothelial cells (HUVEC) and fibroblasts modeled by human mesenchymal stem cells (MSCs). The concentration ranges selected for each drug and investigational agent were based upon clinically achievable concentrations if the clinical Cmax of the agent was known.
Compounds. The drugs and investigational agents: cirtuvivint (SM08502; NSC835563), CC-671 (NSC850746), vemurafenib (NSC761431), tapotoclax (NSC804041), sotorasib (NSC818433), adagrasib (NSC831453), MRTX-1133 (NSC836407), BAY2416964 (NSC825713), copanlisib (NSC816437), inavolisib (NSC800729), abemaciclib (NSC768073), osimertinib (NSC779217), entinostat (NSC756642), eltanexor (KPT-8602, NSC794443), venetoclax (NSC766270), ceralasertib (NSC777638), bortezomib (NSC756655), olaparib (NSC753686), talazoparib (NSC767125), alisertib (NSC759677), peposertib (NSC802822), gemcitabine (NSC613327), 5-fluorouracil (NSC19893), SN-38 (NSC673596), oxaliplatin (NSC266046), paclitaxel (NSC125973), and doxorubicin (NSC123127), were obtained from the National Cancer Institute (NCI) Developmental Therapeutics Program Chemical Repository. The FDA-approved anticancer drug set is available from the Developmental Therapeutics Program at https://dtp.cancer.gov/organization/dscb/obtaining/available plates.htm. […] The stock solutions were prepared in dimethyl sulfoxide (DMSO, Sigma-Aldrich, St. Louis, MO, cat. D2650), except for the platinum complexes which were prepared in saline (Quality Biological, Gaithersburg, MD, cat. 114-055-101), at 800-fold the tested concentration and stored at -70 degrees C prior to their use. All drugs and investigational agents were tested over a range starting from a high concentration at or near the clinical Cmax and decreasing in half-log increments. If the clinical Cmax for an agent had not been determined, the highest concentration tested was 10 microM.
Cell Culture. All cells were maintained in an incubator at 37 degrees C and 5% CO2 with 95% humidity. The PDC lines were cultured according to standard operating procedures established by the NCI PDMR. Briefly, all PDCs were thawed and cultured in Matrigel-coated flasks prepared with a working solution of 1X Ham's F-12 nutrient mix, without supplementation (Invitrogen, Waltham, MA, cat. 11765054), 100 U/mL penicillin-streptomycin (Invitrogen, cat. 15140122), and 2.5% Matrigel (Corning Inc., Corning, NY, cat. 354248) for the first three passages. The 947758-054-R-J2-PDC line was cultured in 6B/Colon 1A media, which includes advanced DMEM/F-12 (Thermo Fisher Scientific, cat. 12634028), 10 mM HEPES (Thermo Fisher Scientific, cat. 15630080), 1X GlutaMAX supplement (Thermo Fisher Scientific, cat. 35050061), 0.1 mg/mL primocin (InvivoGen, cat. ant-pm-2), 10% defined fetal bovine serum, heat inactivated (HyClone Laboratories Inc., cat. SH30070.03HI), 1.25 mM N-Acetyl-L-cysteine (Sigma-Aldrich, cat. A9165), 10 mM nicotinamide (Sigma-Aldrich, cat. N0636), 1X B-27 supplement (Thermo Fisher Scientific, cat. 17504044), 1X N-2 supplement (Thermo Fisher Scientific, cat. 17502048), and 10 microM Y-27632 dihydrochloride (Tocris Bioscience, cat. 1254). The 876862-298-R-J1-PDC was cultured in 6E media, which includes all 6B/Colon 1A media components plus 50% L-WRN conditioned media (ATCC, cat. CRL-3276), 50 ng/mL recombinant human EGF recombinant protein (hEGF; Thermo Fisher Scientific, cat. PHG0311), 10 ng/mL recombinant human fibroblast growth factor 10 (hGFG-10; PeproTech, cat. 100-26), 1 ng/mL recombinant human fibroblast growth factor 2 (hFGF-2; PeproTech, cat. 100-18B), and 1 µM prostaglandin E2 (PGE2; Tocris, cat. 2296). The 227483-062-R1-J1-PDC line was cultured in Panc media, containing all 6E components except hFGF-2, with the addition of 500 nM SB-431542 (Selleckchem, cat. S1067) and 10 nM gastrin (Tocris, cat. 3006). […]

[1] = curve of first compound, second compound 0.0316 µM
[2] = curve of first compound, second compound 0.1 µM
[3] = curve of first compound, second compound 0.316 µM
[4] = curve of first compound, second compound 1 µM
[5] = curve of first compound, second compound 3.16 µM
[6] = curve of first compound, second compound 10 µM
[7] = second compound 0.0316 µM, first compound 0.0316 µM
[8] = second compound 0.0316 µM, first compound 0.1 µM
[9] = second compound 0.0316 µM, first compound 0.316 µM
[10] = second compound 0.0316 µM, first compound 1 µM
[11] = second compound 0.0316 µM, first compound 3.16 µM
[12] = second compound 0.0316 µM, first compound 10 µM
[13] = second compound 0.1 µM, first compound 0.0316 µM
[14] = second compound 0.1 µM, first compound 0.1 µM
[15] = second compound 0.1 µM, first compound 0.316 µM
[16] = second compound 0.1 µM, first compound 1 µM
[17] = second compound 0.1 µM, first compound 3.16 µM
[18] = second compound 0.1 µM, first compound 10 µM
[19] = second compound 0.316 µM, first compound 0.0316 µM
[20] = second compound 0.316 µM, first compound 0.1 µM
[21] = second compound 0.316 µM, first compound 0.316 µM
[22] = second compound 0.316 µM, first compound 1 µM
[23] = second compound 0.316 µM, first compound 3.16 µM
[24] = second compound 0.316 µM, first compound 10 µM
[25] = second compound 1 µM, first compound 0.0316 µM
[26] = second compound 1 µM, first compound 0.1 µM
[27] = second compound 1 µM, first compound 0.316 µM
[28] = second compound 1 µM, first compound 1 µM
[29] = second compound 1 µM, first compound 3.16 µM
[30] = second compound 1 µM, first compound 10 µM
[31] = second compound 3.16 µM, first compound 0.0316 µM
[32] = second compound 3.16 µM, first compound 0.1 µM
[33] = second compound 3.16 µM, first compound 0.316 µM
[34] = second compound 3.16 µM, first compound 1 µM
[35] = second compound 3.16 µM, first compound 3.16 µM
[36] = second compound 3.16 µM, first compound 10 µM
[37] = second compound 10 µM, first compound 0.0316 µM
[38] = second compound 10 µM, first compound 0.1 µM
[39] = second compound 10 µM, first compound 0.316 µM
[40] = second compound 10 µM, first compound 1 µM
[41] = second compound 10 µM, first compound 3.16 µM
[42] = second compound 10 µM, first compound 10 µM
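Further: spheroids exposed to the agents for 7 days before readout.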

`CC(CO)NC(=O)c1cc(-c2ccc(Cl)cc2)nn(-c2cnn(C)c2)c1=O` (stereo unspecified) + CN1CCN(c2cc(C(=O)Nc3cc4cc(-c5cnn(C)c5)ccc4cn3)ccn2)CC1 gave an IC50 [1] greater than 10000 nM, an IC50 [2] greater than 10000 nM and an IC50 [3] of 8010 nM. It also gave an IC50 [4] of less than 31.6 nM, an IC50 [5] of less than 31.6 nM and an IC50 [6] of less than 31.6 nM. For the same compound, the viability, T/C [7] was 105%, the viability, T/C [8] was 96.2% and the viability, T/C [9] was 95.3%. It also gave a viability, T/C [10] of 107%, a viability, T/C [11] of 102% and a viability, T/C [12] of 82.3%. The viability, T/C [13] was 107%, the viability, T/C [14] was 104% and the viability, T/C [15] was 89.8%. It also gave a viability, T/C [16] of 83.9%, a viability, T/C [17] of 84.9% and a viability, T/C [18] of 66.9%. It also gave a viability, T/C [19] of 75%, a viability, T/C [20] of 70.2% and a viability, T/C [21] of 67.3%. For the same compound, the viability, T/C [22] was 68.4%, the viability, T/C [23] was 69.2% and the viability, T/C [24] was 45.5%. For the same compound, the viability, T/C [25] was 8.41%, the viability, T/C [26] was 6.34% and the viability, T/C [27] was 6.26%. The viability, T/C [28] was 6.91%, the viability, T/C [29] was 6.32% and the viability, T/C [30] was 4.74%. It also gave a viability, T/C [31] of 1.59%, a viability, T/C [32] of 0.78% and a viability, T/C [33] of 2.09%. For the same compound, the viability, T/C [34] was 2.22%, the viability, T/C [35] was 0.69% and the viability, T/C [36] was 1.38%. For the same compound, the viability, T/C [37] was 1.12%, the viability, T/C [38] was 0.98% and the viability, T/C [39] was 0.62%. It also gave a viability, T/C [40] of 0.94%, a viability, T/C [41] of 0.67% and a viability, T/C [42] of 0.38%.

Compound `CC1COCCN1c1cc(C2(S(C)(=N)=O)CC2)nc(-c2ccnc3[nH]ccc23)n1` (stereo unspecified) + CN1CCN(c2cc(C(=O)Nc3cc4cc(-c5cnn(C)c5)ccc4cn3)ccn2)CC1 has an IC50 [1] greater than 10000 nM, an IC50 [2] greater than 10000 nM and an IC50 [3] greater than 10000 nM. The IC50 [4] was less than 31.6 nM, the IC50 [5] was less than 31.6 nM and the IC50 [6] was less than 31.6 nM. For the same compound, the viability, T/C [7] was 103%, the viability, T/C [8] was 104% and the viability, T/C [9] was 98.1%. For the same compound, the viability, T/C [10] was 103%, the viability, T/C [11] was 99.2% and the viability, T/C [12] was 80.8%. For the same compound, the viability, T/C [13] was 102%, the viability, T/C [14] was 91.3% and the viability, T/C [15] was 83.1%. The viability, T/C [16] was 91.7%, the viability, T/C [17] was 90.9% and the viability, T/C [18] was 71%. For the same compound, the viability, T/C [19] was 71.4%, the viability, T/C [20] was 70.1% and the viability, T/C [21] was 69.3%. It also gave a viability, T/C [22] of 62.7%, a viability, T/C [23] of 66% and a viability, T/C [24] of 49.9%. It also gave a viability, T/C [25] of 6.36%, a viability, T/C [26] of 8.03% and a viability, T/C [27] of 5.79%. The viability, T/C [28] was 5.93%, the viability, T/C [29] was 5.27% and the viability, T/C [30] was 4.07%. It also gave a viability, T/C [31] of 1.36%, a viability, T/C [32] of 1.15% and a viability, T/C [33] of 1.45%. The viability, T/C [34] was 0.91%, the viability, T/C [35] was 1.03% and the viability, T/C [36] was 2.2%. For the same compound, the viability, T/C [37] was 1.62%, the viability, T/C [38] was 0.34% and the viability, T/C [39] was 0.65%. It also gave a viability, T/C [40] of 0.65%, a viability, T/C [41] of 4.11% and a viability, T/C [42] of 0.52%.

In the case of `CC(C)CC(NC(=O)C(Cc1ccccc1)NC(=O)c1cnccn1)B(O)O` (stereo unspecified), the viability, T/C (compound 0.000949 µM) is reported as 98.5% and 113%, the viability, T/C (compound 0.003 µM) is reported as 78.9% and 56.8% and the viability, T/C (compound 0.00949 µM) is reported as 9.23% and 6.16%. For the same compound, the viability, T/C (compound 0.03 µM) was 0.73% and 1.24%, the viability, T/C (compound 0.0949 µM) was 0.59% and 0.71% and the viability, T/C (compound 0.3 µM) was 0.55% and 1.04%. For the same compound, the IC50 (curve of compound) was 4.84 nM and 3.5 nM.
